Laboratory results as given in US8206732B2, “Pyrithione biocides enhanced by silver, copper, or zinc ions” (Arch Chemicals, Inc., priority 1999, dated 2012).

Assays:
Fusarium sp. [1] = experiment: Checkerboard MIC test, pyrithiones with zinc salts; type: cell-based; details: pyrithione alone or pyrithione concentration in the inhibitory mixture; TSB, 28 C, 5 days
Description: Mixtures of pyrithione and zinc or silver in various proportions were tested for relative efficacy by a modification of the procedure described by Dougherty, et al.
Equal volumes of bacteria (10^6 cells/ml) or fungi (10^5 spores/ml) were added to each microtiter plate well. The plates were incubated at 28 C for 3 days (bacteria) or 5 days (fungi), and the minimum inhibitory concentration (MIC) of biocide was determined. The Fractional Inhibitory Concentration (FIC=concentration of biocide in an inhibitory mixture divided by the MIC of the pure biocide) was determined, and the FIC Index (sum of the two FIC's) was calculated. The type of interaction was categorized according to the magnitude of the Index: Synergistic (<1), Additive (1), or Antagonistic (>1).

[2] = tested on: Escherichia coli ATCC 10536; experiment: Zone of inhibition test (paper disc on TSA); type: cell-based; details: 6.5 mm discs; 0.135% pyrithione, 0.1% ZnCl2 or both; 28° C., 24 hr
[3] = tested on: E. coli 8739 free-living cells; experiment: Viable free-living cells in bulk metalworking fluid (Example 5); type: cell-based, Escherichia coli; details: 100 PPM NaPT, 10 PPM Zn (II) or both, 4 days after treatment
[4] = tested on: Fusarium sp. free-living cells; experiment: as above; type: cell-based; details: 100 PPM NaPT, 10 PPM Zn (II) or both, 4 days after treatment
Description: Experiments were conducted to investigate the efficacy of the composition of the present invention to inhibit the survival, growth, and proliferation of free-living and biofilm populations of bacteria and fungi in metalworking fluids. […] Metalworking fluids (MWF) employed included 5% soluble oil MWF, 5% semi-synthetic MWF, or 5% synthetic MWS. For testing against bacteria, metalworking fluids were supplemented with 2% (weight-to-weight ratio (w:w)) of 5 g/L yeast extract (Difco), Metalworking fluids were supplemented with 2% (weight-to-weight (w:w)) of Tryptic Soy Broth (Difco) for fungal tests.
For each experiment, three ml of a 5% metalworking fluid was added to each of twelve, sterile, 16 mm×150 mm glass culture tubes. […] Fusarium sp. was added to the tubes to final concentrations of 10^5 spores/ml for the fungal tests. Tubes incubated for 3 days at 28° C. and 180 rpms.
After the treatments additions were performed, the culture tubes resumed incubation at 28° C., 180 rpms for an additional 4 days.
After 4 days, culture tubes were removed from the incubator and viable counts of organisms from the bulk MWF fluid and the biofilm were determined using serial dilution and drop plating techniques. For biofilms, polycarbonate discs were removed from tubes, dip-rinsed in three successive washes of de-ionized water to remove loosely attached cells, and transferred to 25 mm×150 mm culture tubes containing 10 ml of sterile, de-ionized water. Biofilms were removed from discs and resuspended by vortexing tubes for 30 seconds. Bacteria were plated on to R2A Agar plates and incubated at 37° C. Fungi were plated onto Malt Agar plates and incubated at 28° C. Mean colony forming units per ml (for bulk) and per square cm (cm^2) biofilm were determined for each experimental treatment.

[5] = tested on: mixed bacteria (Pseudomonas aeruginosa 9027, Escherichia coli 8739, Pseudomonas fluorescens 12201, Pseudomonas rubescens 12202, Pseudomonas putida); experiment: Various mixtures of NaPT and Zn(II) against bacteria in 5% metalworking fluid (Example 8, Table 10a); type: cell-based, Pseudomonas spp.
Fusarium sp. [6] = experiment: MIC in Tryptic Soy Broth, microtiter (Example 1); type: cell-based; details: TSB with 0.5 ppm Cu (II), 28° C., 5 days
Description: Equal volumes of bacterial suspension (10^6 bacteria per milliliter of TSB) containing Pseudomonas aeruginosa ATCC 9027 or fungal spore suspension (10^5 spores per milliliter of TSB) containing Aspergillus niger ATCC 6275 or species of Fusarium and Cephalosporium isolated from contaminated metalworking fluid were added to each microtiter plate well, and the plates were incubated at 28° C. Controls were prepared for cultures inoculated into TSB with and without Cu (II).

## [Na+].[O-][n+]1ccccc1[S-] [NaPT, sodium pyrithione]
Fusarium sp. [1]
  MIC Pyrithione: 411 ppm
[2]
  Zone of Inhibition: 35 mm
[3]; 5% solub. oil MWF
  viable free-living microorganisms: 5.3 × 10^7 cells/ml
[3]; 10% TSB
  viable free-living microorganisms: 9.1 × 10^8 cells/ml
[4]; 5% semisynth. MWF
  viable free-living microorganisms: 2.8 × 10^5 cells/ml
[4]; 5% solub. oil MWF
  viable free-living microorganisms: 4.2 × 10^6 cells/ml
[4]; 5% synthetic MWF
  viable free-living microorganisms: 6.0 × 10^6 cells/ml
[4]; 100% TSB
  viable free-living microorganisms: 0 cells/ml
[5]; semi-synthetic, NaPT 100 PPM, Day 1
  Bacteria/ml: 1.8 × 10^5 Bacteria/ml
[5]; semi-synthetic, NaPT 100 PPM, Day 1, tube of the Day 1/Day 4 series
  Bacteria/ml: 1.7 × 10^4 Bacteria/ml
[5]; semi-synthetic, NaPT 100 PPM, Day 2
  Bacteria/ml: 1.9 × 10^5 Bacteria/ml
[5]; semi-synthetic, NaPT 100 PPM, Day 4
  Bacteria/ml: 1.2 × 10^4 Bacteria/ml
[5]; semi-synthetic, NaPT 100 PPM, Day 7
  Bacteria/ml: 510 Bacteria/ml
[5]; semi-synthetic, NaPT 300 PPM, Day 1
  Bacteria/ml: 1.2 × 10^5 Bacteria/ml
[5]; semi-synthetic, NaPT 300 PPM, Day 2
  Bacteria/ml: 0 Bacteria/ml
[5]; semi-synthetic, NaPT 300 PPM, Day 7
  Bacteria/ml: 0 Bacteria/ml
[5]; semi-synthetic, NaPT 500 PPM, Day 2
  Bacteria/ml: 0 Bacteria/ml
[5]; semi-synthetic, NaPT 500 PPM, Day 7
  Bacteria/ml: 0 Bacteria/ml
[5]; soluble oil, NaPT 100 PPM, Day 1
  Bacteria/ml: 2.4 × 10^5 Bacteria/ml
[5]; soluble oil, NaPT 100 PPM, Day 1, tube of the Day 1/Day 4 series
  Bacteria/ml: 5.9 × 10^6 Bacteria/ml
[5]; soluble oil, NaPT 100 PPM, Day 2
  Bacteria/ml: 6.0 × 10^3 Bacteria/ml
[5]; soluble oil, NaPT 100 PPM, Day 4
  Bacteria/ml: 1.5 × 10^6 Bacteria/ml
[5]; soluble oil, NaPT 100 PPM, Day 7
  Bacteria/ml: 2.0 × 10^4 Bacteria/ml
[5]; soluble oil, NaPT 300 PPM, Day 1
  Bacteria/ml: 7.1 × 10^4 Bacteria/ml
[5]; soluble oil, NaPT 300 PPM, Day 2
  Bacteria/ml: 9.0 × 10^3 Bacteria/ml
[5]; soluble oil, NaPT 300 PPM, Day 7
  Bacteria/ml: 0 Bacteria/ml
[5]; soluble oil, NaPT 500 PPM, Day 2
  Bacteria/ml: 450 Bacteria/ml
[5]; soluble oil, NaPT 500 PPM, Day 7
  Bacteria/ml: 0 Bacteria/ml
[5]; synthetic, NaPT 100 PPM, Day 1
  Bacteria/ml: 2.9 × 10^6 Bacteria/ml
[5]; synthetic, NaPT 100 PPM, Day 1, tube of the Day 1/Day 4 series
  Bacteria/ml: 2.1 × 10^6 Bacteria/ml
[5]; synthetic, NaPT 100 PPM, Day 2
  Bacteria/ml: 1.7 × 10^5 Bacteria/ml
[5]; synthetic, NaPT 100 PPM, Day 4
  Bacteria/ml: 2.0 × 10^5 Bacteria/ml
[5]; synthetic, NaPT 100 PPM, Day 7
  Bacteria/ml: 1.5 × 10^4 Bacteria/ml
[5]; synthetic, NaPT 300 PPM, Day 1
  Bacteria/ml: 5.0 × 10^4 Bacteria/ml
[5]; synthetic, NaPT 300 PPM, Day 2
  Bacteria/ml: 4.0 × 10^3 Bacteria/ml
[5]; synthetic, NaPT 300 PPM, Day 7
  Bacteria/ml: 0 Bacteria/ml
[5]; synthetic, NaPT 500 PPM, Day 1
  Bacteria/ml: 1.2 × 10^5 Bacteria/ml
[5]; synthetic, NaPT 500 PPM, Day 2
  Bacteria/ml: 1.0 × 10^3 Bacteria/ml
[5]; synthetic, NaPT 500 PPM, Day 7
  Bacteria/ml: 50 Bacteria/ml
Fusarium sp. [6]
  MIC NaPT (with 0.5 ppm Cu): 8 ppm
